# Tested on: mice (forced swim test, model of depression)
# Assay: Forced swim test in mice
# Format: in vivo, mouse
# Conditions: p.o., 30 minutes before the test, male NMRI mice
# Method: The compounds of the invention show significant antidepressive effects in the forced swim test in mice, an animal model of depression at doses of 100 mg/kg or below.
# The method, which detects antidepressant activity, follows that described by Porsolt et al (Arch. Int. Pharmacodyn., 229, 327-336, 1977), which is incorporated by reference herein in its entirety.
# Mice forced to swim in a situation from which they cannot escape rapidly become immobile. Antidepressants decrease the duration of immobility.
# Male NMRI mice (Janvier, France), weighing 20-30 g, were individually placed in a cylinder (height=24 cm; diameter=13 cm) containing 10 cm water (22° C.) from which they cannot escape.
# The mice were placed in the water for 6 minutes and the duration of immobility during the last 4 minutes was measured. The latency to the first bout of immobility was also recorded starting from the beginning of the test. 10 mice were studied per group. The test substance was administered p.o. 30 minutes before the test and compared with vehicle control group. The test was performed blind.
row,Compound,Minimum effective dose
1,"OCCc1nccn1Cc1cn(-c2ccc(F)c(OC(F)F)c2)nn1 [Example 101, 1-(3-Difluoromethoxy-4-fluoro-phenyl)-4-[2-(2-hydroxy-ethyl)-imidazol-1-ylmethyl]-1H-[1,2,3]triazole]",>30 mg/kg
2,"Fc1ccc(-n2cc(Cn3ccnc3C3CC3)nn2)cc1C(F)F [Example 82, 4-(2-Cyclopropyl-imidazol-1-ylmethyl)-1-(3-difluoromethyl-4-fluoro-phenyl)-1H-[1,2,3]triazole]",60 mg/kg

# From patent US10323021B2, “Triazoles as NR2B receptor inhibitors” (Janssen Pharmaceuticals, Inc., priority 2014, dated 2019)
